These results are taken from US10662164B2, “Non-beta lactam antibiotics” (University of Notre Dame du Lac, priority 2014, dated 2020).

The structures appear in SMILES notation. In brackets after ≈: the same amount, converted by molar mass.

Series [1] has as its system S. aureus NRS100 (COL). Briefly: MIC determination. It counts as cell-based. As to conditions: Staphylococcus aureus, mecA positive, resistant to methicillin, oxacillin, tetracycline, Tables 1 and 5, read-out: MIC. The text has this:
(§1) The ESKAPE organisms (E. faecium NCTC (ATCC 19734), S. aureus ATCC 29213, K. pneumonia ATCC 700603, A. baumannii ATCC 17961, P. aeruginosa ATCC 17853, E. aerogenes ATCC 35029) and E. coli ATCC 25922) in the initial screen, S. aureus ATCC 27660, S. epidermis ATCC 35547, S. haemolyticus ATCC 29970, S. oralis ATCC 9811, S. pyogenes ATCC 49399, B. cereus ATCC 13061, B. licheniformis ATCC 12759, and E. faecalis ATCC 29212 were purchased from the American Type Culture Collection (Manassas, Va., USA). S. aureus strains NRS100, NRS119, NRS120, VRS1, and VRS2 were obtained from the Network on Antimicrobial Resistance in Staphylococcus aureus (Chantilly, Va., USA). E. faecalis strains 201 and 99, and E. faecium strains 119-39A and 106 were collected from Wayne State University School of Medicine.
(§2) The procedure for MIC determination was the same as previously reported (Tran et al., Am. J. Clin. Dermatol. 2015; doi 10.1007/S40257-015-0125-9).

For series [2], the system named is S. aureus VRS1. Nature of the series: MIC determination. Type of series: cell-based. Particulars: Staphylococcus aureus; vancomycin-resistant MRSA (vanA) isolate from Michigan; Tables 1 and 5; read-out: MIC.
Text: as §1, §2

The subject of series [3] is S. epidermis ATCC 35547. Briefly: MIC determination. As to conditions: Tables 1 and 5; read-out: MIC. Type of series: cell-based.
Text: as §1, §2

Series [4] relates to S. haemolyticus ATCC 29970. Briefly: MIC determination. It counts as cell-based. Particulars: Staphylococcus haemolyticus, ATCC29970; Tables 1 and 5; read-out: MIC.
Text: as §1, §2

Series [5] deals with S. oralis ATCC 9811. Nature of the series: MIC determination. It counts as cell-based. As to conditions: Streptococcus oralis, ATCC9811; Table 1; read-out: MIC.
Text: as §1, §2

Series [6] concerns S. pyogenes ATCC 49399. Briefly: MIC determination. Type of series: cell-based. Particulars: Streptococcus pyogenes, ATCC49399; Table 1; read-out: MIC.
Text: as §1, §2

Series [7] can be described thus: Plasma protein binding, equilibrium dialysis. As to conditions: 10 μM, 37° C., 6 h. How it is done:
Protein binding for compounds 60b, 60c, 65b, 66b, 75b and 76b was determined in human plasma using equilibrium dialysis.
Plasma protein binding was determined using human plasma and a rapid equilibrium dialysis device (Pierce Biotechnology, Thermo Scientific, Waltham, Mass., USA). Human plasma was thawed and centrifuged at 1200 g for 10 min to remove particulates. A […] aliquot of human plasma was added to the sample chamber and 350 μL of 0.1 M phosphate buffered saline (pH 7.4) containing […] sodium chloride was added to the adjacent chamber. A 2-μL aliquot of a stock solution of the compounds at a concentration of 1 mM in DMSO was diluted with human plasma to a final drug concentration of 10 μM and added to the sample chamber. The compounds were dialyzed at 37° C. in an orbital shaker for 6 h. Aliquots (50 μL) were taken from the buffer chamber (representing the free concentration) and from the plasma chamber (representing the total concentration) and mixed with 100 μL of internal standard in acetonitrile to a final concentration of 5 μM. Samples were analyzed by UPLC with UV detection at 285 nm. The plasma protein binding ratio (B %) was calculated according to the following equation: B%=(Cp−Cf)/Cp×100 where Cp and Cf are the total plasma concentration and the free concentration of compound, respectively.
In general terms: Equilibrium dialysis compares concentrations on both sides of a semipermeable membrane.

In series [8] the test system is B. cereus ATCC 13061. Briefly: MIC determination. It counts as cell-based. As to conditions: Bacillus cereus, ATCC13061; Tables 1 and 5; read-out: MIC.
Text: as §1, §2

Series [9] concerns B. licheniformis ATCC 12759. Briefly: MIC determination. It counts as cell-based. As to conditions: Bacillus licheniformis, ATCC12759; Tables 1 and 5; read-out: MIC.
Text: as §1, §2

Series [10] has as its system E. faecalis 201 (Van S). Briefly: MIC determination. As to conditions: Enterococcus faecalis; vancomycin-susceptible clinical isolate; Tables 1 and 5; read-out: MIC. It counts as cell-based.
Text: as §1, §2

Series [11] has as its system E. faecalis 99 (Van R). Briefly: MIC determination. It counts as cell-based. Particulars: Enterococcus faecalis; vancomycin-resistant clinical isolate; Tables 1 and 5.
Text: as §1, §2

Series [12] relates to E. faecalis ATCC 29212. Nature of the series: MIC determination. Type of series: cell-based. Particulars: Enterococcus faecalis, ATCC29212; quality-control strain; Tables 1 and 5; read-out: MIC.
Text: as §1, §2

The subject of series [13] is E. faecium 106 (Van R). Briefly: MIC determination. Type of series: cell-based. As to conditions: Enterococcus faecium; vancomycin-resistant clinical isolate; Tables 1 and 5; read-out: MIC.
Text: as §1, §2

Series [14] has as its system E. faecium 119-39A (Van S). Nature of the series: MIC determination. It counts as cell-based. As to conditions: Enterococcus faecium; vancomycin-susceptible clinical isolate; Tables 1 and 5; read-out: MIC.
Text: as §1, §2

In series [15] the test system is S. aureus NRS119. Nature of the series: MIC determination. Type of series: cell-based. As to conditions: Staphylococcus aureus, mecA positive, linezolid-resistant, Tables 1 and 5, read-out: MIC.
Text: as §1, §2

Series [16] concerns S. aureus NRS120. Nature of the series: MIC determination. It counts as cell-based. As to conditions: Staphylococcus aureus, mecA positive, linezolid-resistant, Tables 1 and 5, read-out: MIC.
Text: as §1, §2

Series [17] relates to S. aureus ATCC 277660. Nature of the series: Minimal-bactericidal concentration (MBC) determination. Type of series: cell-based, Staphylococcus aureus. On the procedure: (§3) The MBC of compound 75b was determined using S. aureus ATCC 29213, S. aureus […], and E. faecium NCTC 7171.
(§4) The MBC of indolyl antibiotic 75b was determined by incubation of 1.5×10^5 cells of S. aureus ATCC29213, S. aureus ATCC 27660, and E. faecium NCTC7171 at MIC, 2×MIC, and 4×MIC. Aliquots of 10 μL (corresponding to 1.5×10^4 cells) were plated on agar plates, incubated for 48 h, and colonies were counted in the presence and absence of […].

In series [18] the test system is S. aureus ATCC 29213. The series is described as above. Type of series: cell-based, Staphylococcus aureus. As to conditions: MSSA strain. How it is done: as §3, §4
Series [19] has as its system S. aureus ATCC 27660. Nature of the series: MIC determination. Type of series: cell-based. Particulars: Staphylococcus aureus, ATCC27660; mecA positive, resistant to methicillin, oxacillin, tetracycline; Tables 1 and 5; read-out: MIC.
Text: as §1, §2

Series [20] concerns S. aureus VRS2. Briefly: MIC determination. It counts as cell-based. Particulars: Staphylococcus aureus; vancomycin-resistant MRSA (vanA) isolate from Pennsylvania; Tables 1 and 5; read-out: MIC.
Text: as §1, §2

Series [21] in a line: Full PK study. It counts as in vivo, mouse. Particulars: compound 1, oral; dose not given.

With `FC(F)(F)c1ccc(Oc2ccc(-c3noc(-c4c[nH]cn4)n3)cc2)cc1` [Compound 76b, 5-(1H-Imidazol-4-yl)-3-(4-(4-(trifluoromethyl)phenoxy)phenyl)-1,2,4-oxadiazole], the MIC in series [1] is 32 µg/mL (≈ 86 µM); in series [2], 1 µg/mL (≈ 2.69 µM); in series [3], 32 µg/mL (≈ 86 µM); in series [4] it was 16 µg/mL (≈ 43 µM); in series [5], greater than 128 µg/mL; in [6], 128 µg/mL (≈ 344 µM). For the same compound, the “Human plasma protein binding” value in [7] was 93.5 ± 2.4%.
For the compound `Fc1ccc(Oc2ccc(-c3noc(-c4n[nH]cc4Cl)n3)cc2)cc1` [Compound 60c, 5-(4-Chloro-1H-pyrazol-3-yl)-3-(4-(4-fluorophenoxy)phenyl)-1,2,4-oxadiazole], the MIC in series [8], in [9], in series [10], in series [11], in [12] and in series [13] was greater than 128 µg/mL throughout. Moreover, the minimal inhibitory concentration (MIC) in [14] was greater than 128 µg/mL; in [1], greater than 128 µg/mL; in series [15], 2 µg/mL (≈ 5.61 µM); in series [16], 64 µg/mL (≈ 179 µM); in series [2], 1 µg/mL (≈ 2.8 µM); in [3], greater than 128 µg/mL. In addition, the MIC in [4], in [5] and in series [6] was greater than 128 µg/mL throughout. In series [7], the “Human plasma protein binding” value is on record as 94.5 ± 2.1%.
`FC(F)(F)c1ccc(Oc2ccc(-c3noc(-c4ccc5[nH]ccc5c4)n3)cc2)cc1` [Compound 75b, 5-(1H-Indol-5-yl)-3-(4-(4-(trifluoromethyl)phenoxy)phenyl)-1,2,4-oxadiazole]: the MIC in series [8] is 16 µg/mL (≈ 38 µM); in [11] it was 16 µg/mL (≈ 38 µM); in series [2] it was 1 µg/mL (≈ 2.37 µM); in series [4] it was 8 µg/mL (≈ 19 µM); in series [5] it was 128 µg/mL (≈ 304 µM); in series [6], 64 µg/mL (≈ 152 µM). Besides, the “Human plasma protein binding” value in series [7] is 98.2±3.2%. For the same compound, the “MBC, fold above the MIC” value in series [17] is 2 fold. Also, the “MBC relative to MIC” value in series [18] is “the same as the MIC value”.
For `Oc1ccc(-c2nc(-c3ccc(Oc4ccc(C(F)(F)F)cc4)cc3)no2)cc1` [Compound 1], the MIC in series [8], in [9], in series [10], in [11], in series [12] and in [13] was 2 µg/mL (≈ 5.02 µM) throughout. Besides, the MIC amounted to 1 µg/mL (≈ 2.51 µM) in series [14]; 2 µg/mL (≈ 5.02 µM) in [19]; 2 µg/mL (≈ 5.02 µM) in [1]; 2 µg/mL (≈ 5.02 µM) in series [15]; 2 µg/mL (≈ 5.02 µM) in series [16]; 2 µg/mL (≈ 5.02 µM) in [2]. In addition, the MIC in series [20] stood at 2 µg/mL (≈ 5.02 µM); in [3], 2 µg/mL (≈ 5.02 µM); in [4], 2 µg/mL (≈ 5.02 µM); in series [5], 32 µg/mL (≈ 80.3 µM); in series [6], 32 µg/mL (≈ 80.3 µM). Also, the “Human plasma protein binding” value in series [7] was 99.9 ± 0.1%. The t1/2abs in [21] is 3.3 h.

Usually MIC stands for the least concentration at which growth counts as inhibited.
